{
  "source": "patent US5567716A",
  "about": "“Trans and cis traumatic acid salts having cicatrizant activity associated to bacteriostatic, antiviral, antibiotic or antifungal activity” (priority 1992, dated 1996)",
  "key": {"herpetic keratitis": {"test_system": "herpetic keratitis", "conditions": "topic and systemic administration; cited from earlier work"}, "[1]": {"test_system": "psoriatic patients or patients affected by acne, dermatitis seborrheic, neurodermatitis and itches", "conditions": "trachoma, herpetic keratitis, verruca; cited from earlier work"}, "3T3 fibroblasts": {"test_system": "3T3 fibroblasts", "assay": "Cellular proliferation of 3T3 fibroblasts, neutral red colorimetry (1.1a)", "type": "cell-based, Mice", "description": "Experiments on 3T3 fibroblasts\nMice 3T3 fibroblasts cultures sown at a 40.000/ml concentration on plates having 6 wells in a DMEM culture medium enriched with 10% calf serum are used. After 24 hours culture, the 90 prepared wells are divided in order to allow the analyses of the compounds of the invention, every compound to be tested being used respectively at a concentration of 0.1, 1 and 10 μg/ml by subsequent evaluations after 48 and 72 hours of incubation.\nHexadecyltrimethylammoniun (ETA) traumatare: solubilized in water and brought to the desired final concentrations of 0.1. 1 and 10 μg/ml by progressive dilutions;\nEthanolamine traumatate: solubilized in water and brought to the final concentrations of 0.1, 1 and 10 μg/ml by progressive dilutions;\nTraumatic acid: neutralized with sodium hydroxyde and solubilized in water, then brought to the final concentrations of 0.1, 1 and 10 μg/ml by progressive dilutions with the culture medium.\nThe compounds are added to the cells after 24 hours culture. The cells number is measured by colorimetry with the neutral red intravital stain after 24, 48, 72 hours of incubation."}, "experimental animal": {"test_system": "experimental animal", "conditions": "topical route; cited from earlier work"}, "man": {"test_system": "man", "conditions": "burns therapy; cited from earlier work"}, "Balb/C 3T3 fibroblasts": {"test_system": "Balb/C 3T3 fibroblasts", "assay": "Cell growth of Balb/C 3T3 fibroblasts, crystal violet colorimetry (1.1b)", "type": "cell-based, Mouse", "conditions": "for cell growth t2/t1: 48 h/24 h, control 76.776", "description": "Mouse Balb/C 3T3 fibroblasts were grown in DMEM medium supplemented with penicillin (100 units/ml) and streptomycin (0.1 mg/ml). For experimental purposes, cells are routinely inoculated in […] diameter culture dishes (5000cells/dish) and cultured overnight.\nThe compounds to be tested are solubilized in DMEM+10%FCS and DMSO to obtain the final concentration of 10^-5 M, 10^-6 M e 10^-7 M in 0.05% DMSO.\nThe cells number is measured 4, 24 and 48 hours after seeding. The cell growth is evaluated as t2/t1 ratio (%)."}},
  "data": [
    {"smiles": "O=C(O)/C=C/CCCCCCCCC(=O)O", "note": "[traumatic acid, 10-dodecendioic]", "values": [
      {"measurement": "effect on herpetic keratitis model", "setting": "herpetic keratitis", "result": "effectiveness on an in vivo herpetic keratitis model both after topic and systemic administration"},
      {"measurement": "clinical results", "setting": "[1]", "result": "Positive clinical results"},
      {"measurement": "effect on cells proliferation", "setting": "3T3 fibroblasts; 0.1 μg/ml, in words", "result": "able to affect cells proliferation according to a not statistically significant trend"},
      {"measurement": "effect on cellular proliferation", "setting": "3T3 fibroblasts; 1 μg/ml, in words, ETA salt > ethanolamine salt = traumatic acid", "result": "able to increase cellular proliferation"},
      {"measurement": "cells numeration (colorimetric, neutral red)", "setting": "3T3 fibroblasts; 24 hours of incubation, 0.1 (head: μg/ml), control 0.579 ± 0.021", "result": "0.486 ± 0.029"},
      {"measurement": "cells numeration (colorimetric, neutral red)", "setting": "3T3 fibroblasts; 24 hours of incubation, 1.0 (head: μg/ml), control 0.579 ± 0.021", "result": "0.510 ± 0.008"},
      {"measurement": "cells numeration (colorimetric, neutral red)", "setting": "3T3 fibroblasts; 24 hours of incubation, 10.0 (head: μg/ml), control 0.579 ± 0.021", "result": "0.543 ± 0.019"},
      {"measurement": "cells numeration (colorimetric, neutral red)", "setting": "3T3 fibroblasts; 48 hours of incubation, 0.1 (head: μg/ml), control 1.334 ± 0.050", "result": "1.497 ± 0.087"},
      {"measurement": "cells numeration (colorimetric, neutral red)", "setting": "3T3 fibroblasts; 48 hours of incubation, 1.0 (head: μg/ml), control 1.334 ± 0.050", "result": "1.431 ± 0.047"},
      {"measurement": "cells numeration (colorimetric, neutral red)", "setting": "3T3 fibroblasts; 48 hours of incubation, 10.0 (head: μg/ml), control 1.334 ± 0.050, ** p < 0.01 significant reduction", "result": "1.442 ± 0.060"},
      {"measurement": "cells numeration (colorimetric, neutral red)", "setting": "3T3 fibroblasts; 72 hours of incubation, 0.1 (head: μg/ml), control 2.360 ± 0.125", "result": "2.492 ± 0.070"},
      {"measurement": "cells numeration (colorimetric, neutral red)", "setting": "3T3 fibroblasts; 72 hours of incubation, 1.0 (head: μg/ml), control 2.360 ± 0.125", "result": "2.349 ± 0.125"},
      {"measurement": "cells numeration (colorimetric, neutral red)", "setting": "3T3 fibroblasts; 72 hours of incubation, 10.0 (head: μg/ml), control 2.360 ± 0.125, ** p < 0.01 significant reduction", "result": "2.446 ± 0.128"},
      {"measurement": "time necessary for the cells to reach the confluence", "setting": "3T3 fibroblasts; side control experiment, ETA and ethanolamine salts > traumatic acid", "result": "reduce the time normally necessary for the cells to reach the confluence"},
      {"measurement": "reepithelializing and antiirritant action", "setting": "experimental animal", "result": "reepithelializing and antiirritant action"},
      {"measurement": "reepithelialization times", "setting": "man", "result": "reduces the reepithelialization times"},
      {"measurement": "Cell density", "setting": "Balb/C 3T3 fibroblasts; 4 h (t0), 10^-5M, control 0.300", "result": 0.478},
      {"measurement": "Cell density", "setting": "Balb/C 3T3 fibroblasts; 4 h (t0), 10^-6M, control 0.300", "result": 0.495},
      {"measurement": "Cell density", "setting": "Balb/C 3T3 fibroblasts; 4 h (t0), 10^-7M, control 0.300", "result": 0.459},
      {"measurement": "Cell density", "setting": "Balb/C 3T3 fibroblasts; 24 h (t1), 10^-5M, control 0.481", "result": 0.317},
      {"measurement": "Cell density", "setting": "Balb/C 3T3 fibroblasts; 24 h (t1), 10^-6M, control 0.481", "result": 0.320},
      {"measurement": "Cell density", "setting": "Balb/C 3T3 fibroblasts; 24 h (t1), 10^-7M, control 0.481", "result": 0.323},
      {"measurement": "Cell density", "setting": "Balb/C 3T3 fibroblasts; 48 h (t2), 10^-5M, control 0.849", "result": 0.657},
      {"measurement": "Cell density", "setting": "Balb/C 3T3 fibroblasts; 48 h (t2), 10^-6M, control 0.849", "result": 0.657},
      {"measurement": "Cell density", "setting": "Balb/C 3T3 fibroblasts; 48 h (t2), 10^-7M, control 0.849", "result": 0.740},
      {"measurement": "cell growth t2/t1", "setting": "Balb/C 3T3 fibroblasts; 10^-5M", "result": 112.273, "unit": "%"},
      {"measurement": "cell growth t2/t1", "setting": "Balb/C 3T3 fibroblasts; 10^-6M", "result": 95.638, "unit": "%"},
      {"measurement": "cell growth t2/t1", "setting": "Balb/C 3T3 fibroblasts; 10^-7M", "result": 135.554, "unit": "%"}
    ]}
  ]
}
